According to patent US11591297B2, “Compound having PD-L1 expression-suppressing action” (TOHOKU UNIVERSITY, priority 2019, dated 2023):
Like-named read-outs stand apart in the source and are kept apart here.

Key:
human PD-L1 promoter = test: Inhibitory effect of luciferase expression under control of PD-L1 promoter (A549/PD-L1luc luciferase assay, corrected by total protein); type: cell-based; settings: A549/PD-L1luc cells, 48±4 hours, RLU corrected by total protein amount, read-out: IC50 (50% inhibition value of luciferase expression)
From the text: A reporter vector, pPD-L1luc obtained by the insertion of a human PD-L1 promoter sequence (−2097 to 51) into the multiple cloning site of pGL-3 vector basic (Promega) expresses luciferase under the control of PD-L1 promoter when transfected into animal cells. The pPD-L1luc was transfected into a human non-small cell lung cancer-derived cell line A549 together with pPUR (Clontech) that expresses a puromycin resistance gene (puromycin-N-acetyl-transferase gene), and then cells expressing luciferase which could grow in a puromycin-supplemented medium were selected. The selected cells were named “A549/PD-L1luc cells” and used for luciferase assay as described below.
A test compound was added into a culture liquid containing A549/PD-L1luc cells to observe the influence of the test compound on the amount of luciferase expressed in the cells. Here, it can be considered that when the test compound has a cell cytotoxicity or cell growth inhibitory effect, the total expression level of luciferase is recued due to a reduction in the number of living cells that depends on the concentration of the test compound, and thus the inhibitory effect of luciferase expression under the control of PD-L1 promoter of the test compound cannot be properly evaluated.
A549/PD-L1luc cells were suspended in DMEM containing 10% fetal calf serum (FCS) and 1% penicillin/streptomycin (P/S) (hereinafter, referred to as “DMEM medium”) at 3×10^4 cells/mL to obtain a cell suspension, and the cell suspension was dispensed into each well of a 96-well plate in an amount of 100 μL. In order to perform the assay in triplicate, 3 wells were prepared for control group, and 3 wells were prepared for test compound-treated groups at each concentration. After the dispensation, the 96-well plate was incubated in a CO2 incubator (at 37° C. and 5% CO2) for 24±4 hours.
Each compound of Examples 1 to 6 and Comparative Example 1 was dissolved in dimethylsulfoxide (DMSO) to obtain 50 mmol/L of a compound solution, and the compound solution was stored at −80° C. The compound solution was diluted with DMSO in 2-fold dilution series (usually, in the range of 0.04 mmol/L to 10 mmol/L) to prepare test compound solutions whose concentration varied by two fold for luciferase assay.
Each solution of only DMSO (control) and the diluted test compound (sample) was dispensed into each well containing the cell suspension in an amount of 0.5 μL (200-fold dilution). The solution in each well was mixed with a vortex mixer, and then the 96-well plate was incubated in a CO2 incubator (at 37° C. and 5% CO2) for 48±4 hours. Luciferase Assay Substrate (hereinafter, referred to as “LAS”) supplied in Luciferase Assay Systems (Promega: Cat #E1500) was dissolved in Luciferase Assay Buffer (LAB) to prepare a luciferase reagent. 5× Cell Culture Lysis Reagent (hereinafter, referred to as “CCLR”) was diluted by 5 times with water to prepare 1×CCLR.
After the incubation for 48±4 hours, the medium in each well was completely removed, and 1×CCLR was dispensed into each well in an amount of 50 μL. The plate was allowed to stand at room temperature for 30 minutes, and then 1×CCLR in each well was used as an assay sample for luciferase and total protein amount. The luciferase reagent (100 μL) was placed in a tube for chemiluminescence measurement assay, and the assay sample (20 μL) was added into the tube and mixed with the luciferase reagent to measure chemiluminescence (Relative Luminescence Intensity: RLU) using GloMax 20/20 (Promega).
The above-mentioned assay sample (10 μL) was diluted by 10 times with water (90 μL). Each calibration curve sample was prepared by diluting the BSA solution with water as described in Table 1.
BCA reagent A and BCA reagent B (50:1) supplied in a kit for protein assay were mixed to prepare Working Reagent. Each of the calibration curve samples (Vials I to VI) and the 10-fold diluted assay samples was dispensed into each well of a 96-well plate in an amount of 25 μL, respectively. […]

PD-L1 = test: Inhibitory effect of PD-L1 expression by cell staining with anti-PD-L1 antibody in IFN-γ-treated THP-1 cells (flow cytometry); type: cell-based; settings: Homo sapiens, IFN-γ 25 ng/mL, 24±2 hours, subMFI anti-CD274-PC7, read-out: IC50 (50% PD-L1 expression inhibition concentration)
Description: The inhibitory effects of each compound of Examples 1 to 6 on the PD-L1 expression were evaluated according to the following procedures.
(1) Acute monocytic leukemia cell-derived THP-1 cells were suspended in RPMI medium containing 10% FCS and 1% P/S (hereinafter, referred to as “RPMI medium”) at 5×10^5 cells/mL to obtain a cell suspension, and the cell suspension was dispensed into each well of a 6 well-plate in an amount of 3 mL. In order to activate the THP-1 cells and express PD-L1 in the cells, IFN-γ (PEPROTECH, Cat. No. 300-02-100UG, >2e+7 U/mg) was added into each well at a concentration of 25 ng/mL (>500 U/mL). 50 mmol/L of the test compound solution was diluted with the medium (usually, in the range of 0.025 mmol/L to 1 mmol/L), and the diluted solution was added into each well in an amount of 60 μL. The plate was incubated in a CO2 incubator (at 37° C. and 5% CO2) for 24±2 hours. In the control group, only DMSO was added in place of the test compound. (2) A part of the prepared cell culture liquid was collected and the number of cells therein was counted using a cell counter (BIORAD TC-20). The cell culture liquid was centrifuged at 300×g for 5 minutes and the supernatant of the cell culture liquid was removed. The cells were suspended in calcium and magnesium free phosphate buffered saline (PBS−) containing 1% bovine serum albumin (BSA) at a cell concentration of 1 to 2×10^7 cells/mL to prepare a cell suspension. (3) Each cell suspension prepared in the above step (2) were added into a 5 mL tube in an amount of 25 μL. 2 μL of 2% normal mouse serum/PBS− was added into tubes, and the tubes were gently pipetted. The tubes were then allowed to stand at room temperature for 15 minutes. (4) Anti-CD274-PC7 antibody (BECKMAN COULTER, Cat. No. A78884) or mouse IgG1-PC7 antibody (BECKMAN COULTER, 737662) as control was added in each tube in an amount of 10 μL, and the tubes were gently stirred. The tubes were then allowed to stand in the dark on an ice bath for 30 minutes. (5) Foxp3/Transcription Factor Fix/Perm Concentrate (4×) (Cat. No. TNB-1020-L050) (A solution) supplied in FOXP3/Transcription Factor Staining kit (TONBO biosciences) was diluted in Foxp3/Transcription Factor Fix/Perm Diluent (1×) (Cat. No. TNB-1022-L160) (A dilution solution) to prepare a 1×A solution. (6) The 1×A solution was added into each tube in an amount of 1 mL, and the tubes were gently pipetted and stirred. The tubes were then allowed to stand in the dark at room temperature for 30 minutes and centrifuged at 300×g for 5 minutes, and then the supernatants therein were removed. (7) 2 mL of 1% BSA/PBS− was added into each tube and the tubes were gently stirred and centrifuged at 300×g for 5 minutes, and then the supernatants therein were removed. (8) The cells therein were suspended in 0.5 mL of 1% BSA/PBS- and measured with a flow cytometer (Sony: Cell Sorter SH800) within 2 hours. The results were analyzed with a software, FlowJo (Tree Star Inc.). The mean peak fluorescence intensity (MFI) of PD-L1 and mean peak fluorescence intensity of IgG1 were calculated from histograms of the measured fluorescence intensity and number of cells, and the mean fluorescence intensity of IgG1 was subtracted from that of PD-L1 to calculate the subMFI. The experiments were performed in n=2.
The subMFI values of the control cells calculated by the FlowJo analysis and the cells cultured with the addition of the test compounds at each concentration (test cells) were input into an Excel file, and the percentages of the subMFI values of the test cells at each concentration to the average subMFI value of control cells were calculated. The regression line was determined from the percentages of the subMFI values of the test cells at each concentration by the method of least squares to calculate the 50% PD-L1 expression inhibition concentration (IC50 value) of each compound.

| IC50 (human PD-L1 promoter; Homo sapiens) | IC50 (PD-L1) | Compound | IC50 (human PD-L1 promoter) |
| --- | --- | --- | --- |
| 1300 nM | 1900 nM | O=C(Nc1ccc(Oc2ccc(C(F)(F)F)cc2)cc1)C1CCCN(C(=O)c2ccc(O)cc2)C1 (centres unmarked) [Example 1, 1-(4-Hydroxybenzoyl)-N-(4-(4-(trifluoromethyl)phenoxy)phenyl)piperidine-3-carboxamide] |  |
| 1200 nM | 1200 nM | O=C(Nc1ccc(Oc2ccc(S(F)(F)(F)(F)F)cc2)cc1)C1CCCN(C(=O)c2ccc(O)cc2)C1 (centres unmarked) [Example 4] |  |
|  |  | N-(3-(4-Chlorophenoxy)phenyl)-1-(4-hydroxyphenylcarbonyl) piperidine-3-carboxamide [Comparative Example 1, reference compound] | 14100 nM |
